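1) Cells in 96-well plates. 2) Compound, 48 h, 5 concentrations. 3) Linear interpolation between surrounding doses. 4) Unreached endpoint = highest concentration. At the GI50, growth is halved.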 Activity calls are given as the source filed them. No stated cut-off is given here; in the data, active = GI50 up to about 1.1 µM and inactive = higher.
Experiments:
Experiment in all cases: NCI anticancer screen, dose series, 48 h
MDA-MB-435 = test system: MDA-MB-435
A498 = test system: A498
OVCAR-3 = test system: OVCAR-3
HOP-62 = test system: HOP-62
HCT-15 = test system: HCT-15
SW-620 = test system: SW-620
NCI-H23 = test system: NCI-H23
SK-MEL-2 = test system: SK-MEL-2
PC-3 = test system: PC-3
TK-10 = test system: TK-10
UO-31 = test system: UO-31
NCI-H460 = test system: NCI-H460
SF-268 = test system: SF-268
COLO 205 = test system: COLO 205
SK-MEL-5 = test system: SK-MEL-5
CAKI-1 = test system: CAKI-1
NCI-H226 = test system: NCI-H226
Malme-3M = test system: Malme-3M
SNB-19 = test system: SNB-19
UACC-62 = test system: UACC-62

Structure (SMILES)	GI50 (MDA-MB-435)	GI50 (A498)	GI50 (OVCAR-3)	GI50 (HOP-62)	GI50 (HCT-15)	GI50 (SW-620)	GI50 (NCI-H23)	GI50 (SK-MEL-2)	GI50 (PC-3)	GI50 (TK-10)	GI50 (UO-31)	GI50 (NCI-H460)	GI50 (SF-268)	GI50 (COLO 205)	GI50 (SK-MEL-5)	GI50 (CAKI-1)	GI50 (NCI-H226)	GI50 (Malme-3M)	GI50 (SNB-19)	GI50 (UACC-62)
CC(C)C1C(=O)N(c2c(F)c(F)c(F)c(F)c2F)C(=S)N1CC[S+]([O-])c1ccccc1 (stereo not given)	17.5 µM (inactive)	16.6 µM (inactive)	16.6 µM (inactive)	23.9 µM (inactive)	16.7 µM	18.3 µM (inactive)	16.8 µM (inactive)	17.5 µM (inactive)	15.4 µM (inactive)	26.9 µM (inactive)	14.8 µM (inactive)	19.3 µM (inactive)	16.7 µM (inactive)	15.5 µM (inactive)	14.2 µM (inactive)	5.19 µM (inactive)	20.4 µM (inactive)	15.7 µM (inactive)	18.7 µM (inactive)	19.7 µM (inactive)
O=C(/C=C/c1ccc(-c2ccccc2)cc1)NCc1ccc(C(=O)NCCc2c[nH]c3ccccc23)cc1	> 100 µM (inactive)	32.8 µM (inactive)	28.9 µM (inactive)	9.14 µM (inactive)	> 100 µM	34 µM (inactive)	22.1 µM (inactive)	33.5 µM (inactive)	23.5 µM (inactive)	26.2 µM (inactive)	26.7 µM (inactive)	31.7 µM (inactive)	39.7 µM (inactive)	> 100 µM (inactive)	26 µM (inactive)	16.3 µM (inactive)	24.4 µM (inactive)	33.4 µM (inactive)	21.7 µM (inactive)	29 µM (inactive)
C=C(C[C@@H](O)[C@H](C)NC(=O)OCc1ccccc1)C(=O)OC(C)(C)C	49.7 µM (inactive)	> 100 µM (inactive)	78.2 µM (inactive)	> 100 µM (inactive)	> 100 µM	39.7 µM (inactive)	45.6 µM (inactive)	> 100 µM (inactive)	> 100 µM (inactive)	> 100 µM (inactive)	> 100 µM (inactive)	> 100 µM (inactive)	> 100 µM (inactive)	> 100 µM (inactive)	26.1 µM (inactive)	53.6 µM (inactive)	> 100 µM (inactive)	> 100 µM (inactive)	> 100 µM (inactive)	51.2 µM (inactive)
CC(C)=CCc1c2c(c(O)c3c(=O)c4c(oc13)-c1ccc(O)cc1OC4C=C(C)C)C=CC(C)(C)O2 (stereo not given)	10.6 µM (inactive)	19.5 µM (inactive)	12.3 µM (inactive)	14.2 µM (inactive)	7.5 µM	8.32 µM (inactive)	6.31 µM (inactive)	12.6 µM (inactive)	12.1 µM (inactive)	14.8 µM (inactive)	18.3 µM (inactive)	13.7 µM (inactive)	14.2 µM (inactive)	21 µM (inactive)	14.8 µM (inactive)	20 µM (inactive)	21.9 µM (inactive)	19.3 µM (inactive)	15.3 µM (inactive)	13.7 µM (inactive)
Nc1nc(Cl)c(N)c(NC23CC4CC(CC(C4)C2)C3)n1	1.41 µM (inactive)	2.88 µM (inactive)	1.64 µM (inactive)	1.87 µM (inactive)	1.73 µM	1.51 µM (inactive)	2.23 µM (inactive)	0.147 µM (active)	1.36 µM (inactive)	2.38 µM (inactive)	1.69 µM (inactive)	3.07 µM (inactive)	2.57 µM (inactive)	1.58 µM (inactive)	1.72 µM (inactive)	1.93 µM (inactive)	1.92 µM (inactive)	3.16 µM (inactive)	1.63 µM (inactive)	1.63 µM (inactive)
O=c1[nH]c(=O)n([C@H]2CCCO2)cc1F	615 µM (inactive)	501 µM (inactive)	684 µM (inactive)	547 µM (inactive)	678 µM	887 µM (inactive)	759 µM (inactive)	719 µM (inactive)	2510 µM (inactive)	764 µM (inactive)	869 µM (inactive)	146 µM (inactive)	986 µM (inactive)	673 µM (inactive)	845 µM (inactive)	828 µM (inactive)	625 µM (inactive)	493 µM (inactive)	3920 µM (inactive)	569 µM (inactive)
